Assay results: patent US20190194621A1, “MEDIUM FOR CULTURING STEM CELLS, METHOD FOR CULTURING STEM CELLS, GROWTH PROMOTER FOR STEM CELLS, AND CELL COMPOSITION AND METHOD FOR PRODUCING SAME” (KYOWA HAKKO BIO CO., LTD., priority 2016, published 2019)

System: human iPS cell 253G1 cell line
Assay: Culture of human iPS cells in growth-factor-free medium with added compound; count of Hoechst-stained nuclei and OCT3/4 positive cells
Type: cell-based
Conditions: for number of nuclei counted, increase as compared with the medium to which no growth factor was added (−GF) / expression ratio of OCT3/4 (proportion of Oct3/4 positive cells among Hoechst 33342 stained cells): 5 μM HA100, 0.05 μM DZNep or 0.01 nM TTNPB in growth-factor-free medium; for number of nuclei counted, increase as compared with the medium to which no growth factor was added (−GF): 3 days, 37° C., 10% CO2, average of four experiments; for expression ratio of OCT3/4 (proportion of Oct3/4 positive cells among Hoechst 33342 stained cells): +GF = 2 ng/mL activin A and 5 ng/mL bFGF
Experimental: A medium obtained by adding and dissolving separate components shown in the following Table 1 sterilized through a 0.22 μm filter, 10 μg/mL insulin (manufactured by Sigma-Aldrich Co. LLC.), 5 μg/mL apotransferrin (manufactured by Sigma-Aldrich Co. LLC.), and oleic acid-conjugated recombinant human serum albumin (manufactured by Sigma-Aldrich Co. LLC.) in a known medium (mESF Basal Medium, manufactured by Wako Pure Chemical Industries, Ltd.) was used as a medium in a negative control group. A medium obtained by adding 5 μM HA100 that is a ROCK inhibitor and a PKC inhibitor, 0.05 μM DZNep that is a histone methyltransferase inhibitor, or 0.01 nM TTNPB that is a retinoic acid receptor agonist to the medium of the negative control group was used as a medium in an evaluation target group. Further, a medium obtained by adding 2 ng/mL activin A (manufactured by Wako Pure Chemical Industries, Ltd.) and 5 ng/mL bFGF (manufactured by Wako Pure Chemical Industries, Ltd.) to the medium of the negative control group was used as a medium of a positive control group. The prepared medium in the negative control group, media in the evaluation target group (the medium obtained by adding HA100 to the medium in the negative control group, the medium obtained by adding DZNep to the medium in the negative control group, and the medium obtained by adding TTNPB to the medium in the negative control group), and medium in the positive control group were added to a 24-well plate for cell culture (manufactured by Sumitomo Bakelite Company Limited) at 1 mL/well, and a human iPS cell 253G1 cell line (established by Center for iPS Cell Research and Application, Kyoto University and obtained from iPS Academia Japan, Inc.) was cultured in the presence of 10% CO2 at 37° C. for 3 days. With respect to the cultured cells, the nuclei were stained with Hoechst 33342 (manufactured by Dojindo Laboratories). Further, OCT3/4 protein in the cells was stained with OCT-3/4 antibody C-10 (manufactured by Santa Cruz Biotechnology) and […] anti-mouse IgG (H+L) Secondary Antibod Alexa Fluor 488 conjugate (manufactured by Invitorogen Co.). Thereafter, the number of stained nuclei and the number of Oct3/4 positive cells were counted using In cell analyzer (manufactured by GE Healthcare, Inc.).

| Compound | number of nuclei counted, increase as compared with the medium to which no growth factor was added (−GF) | expression ratio of OCT3/4 (proportion of Oct3/4 positive cells among Hoechst 33342 stained cells) (3 days culture) | growth compared with the medium to which a growth factor was added (+GF) (5 μM HA100 in growth-factor-free medium, 3 days culture) |
| --- | --- | --- | --- |
| Nc1nccc2c1ncn2C1C=C(CO)C(O)C1O (stereo not shown) [DZNep, 3-deazaneplanocin] | 1.35 times | 95.6% | – |
| C/C(=C\c1ccc(C(=O)O)cc1)c1ccc2c(c1)C(C)(C)CCC2(C)C [TTNPB, 4-[(E)-2-(5,6,7,8-tetrahydro-5,5,8,8-tetramethyl-2-naphthalenyl)-1-propenyl]benzoic acid] | 1.24 times | 84.2% | – |
| Cl.O=S(=O)(c1cccc2cnccc12)N1CCNCC1 [HA100, 1-(5-isoquinolinesulfonyl)piperazine hydrochloride] | 1.83 times | 89.3% | growth comparable to that in the case of using the medium to which a growth factor was added |
